Assay results taken from publication PMC2873968, “Novel protein kinase D inhibitors cause potent arrest in prostate cancer cell growth and motility” (BMC Chemical Biology, 2010).

Key:
[1] = biological target: AKT2 (Homo sapiens, UniProt P31751); assay: Kinase profiling, single-dose in vitro kinase assay (Caliper Life Sciences); conditions: read-out: Average % Inhibition AKT2
[2] = biological target: JNK2 (Homo sapiens, UniProt P45984); assay: as above; conditions: read-out: Average % Inhibition JNK2
[3] = biological target: Ikkb (Homo sapiens, UniProt O14920); assay: as above; conditions: read-out: Average % Inhibition Ikkb
[4] = system: protein kinase B (AKT/PKB); design: method as in PMID 18829454; conditions: previously reported; cited from earlier work
[5] = biological target: CHK2 (Homo sapiens, UniProt O96017); assay: Kinase profiling, single-dose in vitro kinase assay (Caliper Life Sciences); conditions: read-out: Average % Inhibition CHK2
[6] = biological target: BTK (Homo sapiens, UniProt Q06187); assay: as above; conditions: read-out: Average % Inhibition BTK
[7] = biological target: IRAK4 (Homo sapiens, UniProt Q9NWZ3); assay: as above; conditions: read-out: Average % Inhibition IRAK4
[8] = biological target: T1, PKCα (Homo sapiens, UniProt P17252); design: method as in PMID 18829454; conditions: previously reported; cited from earlier work
T1 construct: purchased Cell Signaling Technology and Calbiochem

[9] = biological target: SYK (Homo sapiens, UniProt P43405); assay: Kinase profiling, single-dose in vitro kinase assay (Caliper Life Sciences); conditions: read-out: Average % Inhibition SYK
[10] = biological target: FGFR1 (Homo sapiens, UniProt P11362); assay: as above; conditions: read-out: Average % Inhibition FGFR1
Sequence of FGFR1 (P11362 22-822): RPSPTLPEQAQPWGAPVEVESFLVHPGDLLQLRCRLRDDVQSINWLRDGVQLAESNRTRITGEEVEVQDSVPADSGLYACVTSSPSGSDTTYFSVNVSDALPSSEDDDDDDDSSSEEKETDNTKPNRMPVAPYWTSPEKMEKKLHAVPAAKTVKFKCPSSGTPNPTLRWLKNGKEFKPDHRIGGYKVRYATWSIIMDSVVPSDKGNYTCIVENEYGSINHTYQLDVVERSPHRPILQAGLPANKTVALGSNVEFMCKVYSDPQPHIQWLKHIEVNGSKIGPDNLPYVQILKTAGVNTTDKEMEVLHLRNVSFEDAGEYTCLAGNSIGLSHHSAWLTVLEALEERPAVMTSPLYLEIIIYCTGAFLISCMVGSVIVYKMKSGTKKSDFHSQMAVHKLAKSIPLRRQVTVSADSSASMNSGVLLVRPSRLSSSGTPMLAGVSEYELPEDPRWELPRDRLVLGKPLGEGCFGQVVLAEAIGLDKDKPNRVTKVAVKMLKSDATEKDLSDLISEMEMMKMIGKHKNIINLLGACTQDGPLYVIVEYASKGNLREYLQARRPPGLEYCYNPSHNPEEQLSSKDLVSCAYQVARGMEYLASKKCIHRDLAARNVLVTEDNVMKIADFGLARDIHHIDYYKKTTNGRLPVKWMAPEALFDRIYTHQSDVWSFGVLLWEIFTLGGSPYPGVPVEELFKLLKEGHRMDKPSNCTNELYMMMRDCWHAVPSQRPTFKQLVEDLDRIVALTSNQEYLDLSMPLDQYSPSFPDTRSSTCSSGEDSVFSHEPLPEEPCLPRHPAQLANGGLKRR

[11] = biological target: PKG1β (Homo sapiens, UniProt Q13976); assay: as above; conditions: read-out: Average % Inhibition PKG1β
Sequence of PKG1β (Q13976 1-686 isoform Q13976-2): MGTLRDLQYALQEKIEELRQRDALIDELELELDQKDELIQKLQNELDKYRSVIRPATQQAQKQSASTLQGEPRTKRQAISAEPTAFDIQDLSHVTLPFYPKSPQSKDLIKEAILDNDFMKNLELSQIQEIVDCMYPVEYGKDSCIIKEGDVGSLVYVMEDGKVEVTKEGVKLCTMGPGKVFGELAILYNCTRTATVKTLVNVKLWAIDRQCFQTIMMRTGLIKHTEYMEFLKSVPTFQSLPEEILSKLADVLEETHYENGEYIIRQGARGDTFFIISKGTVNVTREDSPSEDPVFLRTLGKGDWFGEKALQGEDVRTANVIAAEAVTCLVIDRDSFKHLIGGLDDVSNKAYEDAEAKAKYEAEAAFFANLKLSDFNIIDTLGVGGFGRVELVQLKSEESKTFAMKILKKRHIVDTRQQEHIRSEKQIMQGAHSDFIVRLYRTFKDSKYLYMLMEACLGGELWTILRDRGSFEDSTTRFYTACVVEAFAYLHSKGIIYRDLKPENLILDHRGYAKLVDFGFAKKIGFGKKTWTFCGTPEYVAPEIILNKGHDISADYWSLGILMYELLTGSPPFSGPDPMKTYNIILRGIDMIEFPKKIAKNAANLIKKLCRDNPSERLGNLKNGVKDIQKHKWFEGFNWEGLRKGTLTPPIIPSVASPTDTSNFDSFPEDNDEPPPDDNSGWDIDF

[12] = biological target: p70S6K (Homo sapiens, UniProt P23443); assay: as above; conditions: read-out: Average % Inhibition p70S6K
[13] = system: AMPK; assay: as above; conditions: 10 μM
[14] = biological target: PAK2 (Homo sapiens, UniProt Q13177); assay: as above; conditions: read-out: Average % Inhibition PAK2
[15] = biological target: T2, CAMKIIα (Homo sapiens, UniProt Q9UQM7); design: method as in PMID 18829454; conditions: previously reported; cited from earlier work
T2 construct: purchased Enzo Life Sciences

[16] = biological target: PKCη (Homo sapiens, UniProt P24723); assay: Kinase profiling, single-dose in vitro kinase assay (Caliper Life Sciences); conditions: read-out: Average % Inhibition PKCη
Sequence of PKCη (P24723 whole entry): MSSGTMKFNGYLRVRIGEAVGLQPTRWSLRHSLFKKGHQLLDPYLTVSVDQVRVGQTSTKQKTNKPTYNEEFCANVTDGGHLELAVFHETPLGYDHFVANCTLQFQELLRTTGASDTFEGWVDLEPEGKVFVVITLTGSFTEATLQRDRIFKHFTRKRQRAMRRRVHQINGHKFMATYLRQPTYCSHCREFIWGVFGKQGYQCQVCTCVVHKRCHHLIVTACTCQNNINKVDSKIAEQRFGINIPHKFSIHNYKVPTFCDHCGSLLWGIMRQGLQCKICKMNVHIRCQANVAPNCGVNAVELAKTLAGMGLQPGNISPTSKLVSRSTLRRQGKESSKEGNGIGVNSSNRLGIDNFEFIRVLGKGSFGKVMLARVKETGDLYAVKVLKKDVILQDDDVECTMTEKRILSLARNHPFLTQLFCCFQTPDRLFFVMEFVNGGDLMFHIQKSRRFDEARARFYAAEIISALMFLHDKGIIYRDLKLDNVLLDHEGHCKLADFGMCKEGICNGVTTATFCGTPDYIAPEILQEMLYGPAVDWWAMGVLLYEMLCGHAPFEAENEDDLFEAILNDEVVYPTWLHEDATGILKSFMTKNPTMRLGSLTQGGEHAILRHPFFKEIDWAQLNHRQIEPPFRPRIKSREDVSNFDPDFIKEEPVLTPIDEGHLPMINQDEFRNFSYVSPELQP

[17] = biological target: IBSR (Homo sapiens, UniProt P06213); assay: as above; conditions: read-out: Average % Inhibition IBSR
[18] = biological target: KDR (Homo sapiens, UniProt P35968); assay: as above; conditions: read-out: Average % Inhibition KDR
[19] = biological target: CAMK4 (Homo sapiens, UniProt Q16566); assay: as above; conditions: read-out: Average % Inhibition CAMK4
Sequence of CAMK4 (Q16566 whole entry): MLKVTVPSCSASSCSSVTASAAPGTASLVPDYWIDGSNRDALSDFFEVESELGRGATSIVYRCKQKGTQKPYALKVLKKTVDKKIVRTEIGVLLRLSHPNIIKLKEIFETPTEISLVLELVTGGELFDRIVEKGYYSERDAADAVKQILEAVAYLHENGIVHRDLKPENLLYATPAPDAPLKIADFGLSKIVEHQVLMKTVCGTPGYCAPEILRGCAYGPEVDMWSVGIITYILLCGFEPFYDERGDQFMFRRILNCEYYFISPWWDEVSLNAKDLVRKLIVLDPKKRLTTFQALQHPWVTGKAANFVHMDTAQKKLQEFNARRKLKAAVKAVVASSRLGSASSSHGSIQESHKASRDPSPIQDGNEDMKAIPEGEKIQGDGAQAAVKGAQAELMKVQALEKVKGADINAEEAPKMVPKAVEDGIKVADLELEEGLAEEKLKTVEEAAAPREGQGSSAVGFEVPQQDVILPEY

[20] = system: PLK1; design: method as in PMID 18829454; conditions: previously reported; cited from earlier work
[21] = biological target: RSK1 (Homo sapiens, UniProt Q15418); assay: Kinase profiling, single-dose in vitro kinase assay (Caliper Life Sciences); conditions: read-out: Average % Inhibition RSK1
[22] = system: CAK; design: method as in PMID 18829454; conditions: previously reported; cited from earlier work
[23] = biological target: Erk2 (Homo sapiens, UniProt P28482); assay: Kinase profiling, single-dose in vitro kinase assay (Caliper Life Sciences); conditions: read-out: Average % Inhibition Erk2
[24] = biological target: p38a (Homo sapiens, UniProt Q16539); assay: as above; conditions: read-out: Average % Inhibition p38a
Sequence of p38a (Q16539 whole entry): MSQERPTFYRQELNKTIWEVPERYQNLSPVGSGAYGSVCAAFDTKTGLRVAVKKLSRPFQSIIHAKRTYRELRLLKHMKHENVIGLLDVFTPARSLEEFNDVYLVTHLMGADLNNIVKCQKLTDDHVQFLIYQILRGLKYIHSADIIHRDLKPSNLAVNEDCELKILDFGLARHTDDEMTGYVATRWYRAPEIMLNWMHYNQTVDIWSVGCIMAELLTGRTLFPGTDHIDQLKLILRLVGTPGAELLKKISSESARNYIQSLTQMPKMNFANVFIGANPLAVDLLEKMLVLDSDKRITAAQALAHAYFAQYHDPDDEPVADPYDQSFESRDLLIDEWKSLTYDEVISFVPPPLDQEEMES

[25] = biological target: EGFR (Homo sapiens, UniProt P00533); assay: as above; conditions: read-out: Average % Inhibition EGFR
[26] = biological target: IGF1R (Homo sapiens, UniProt P08069); assay: as above; conditions: read-out: Average % Inhibition IGF1R
[27] = system: PC3 cells; assay: Cell proliferation assay (cell counts, trypan blue); type: cell-based; conditions: 10 μM, cell counts over six days
From the text: Cells were allowed to attach overnight.

[28] = biological target: T3, PKCδ (Homo sapiens, UniProt Q05655); assay: In vitro radiometric PKC kinase assay; type: biochemical
T3 construct: purchased Enzo Life Sciences
T3 sequence (Q05655 whole entry): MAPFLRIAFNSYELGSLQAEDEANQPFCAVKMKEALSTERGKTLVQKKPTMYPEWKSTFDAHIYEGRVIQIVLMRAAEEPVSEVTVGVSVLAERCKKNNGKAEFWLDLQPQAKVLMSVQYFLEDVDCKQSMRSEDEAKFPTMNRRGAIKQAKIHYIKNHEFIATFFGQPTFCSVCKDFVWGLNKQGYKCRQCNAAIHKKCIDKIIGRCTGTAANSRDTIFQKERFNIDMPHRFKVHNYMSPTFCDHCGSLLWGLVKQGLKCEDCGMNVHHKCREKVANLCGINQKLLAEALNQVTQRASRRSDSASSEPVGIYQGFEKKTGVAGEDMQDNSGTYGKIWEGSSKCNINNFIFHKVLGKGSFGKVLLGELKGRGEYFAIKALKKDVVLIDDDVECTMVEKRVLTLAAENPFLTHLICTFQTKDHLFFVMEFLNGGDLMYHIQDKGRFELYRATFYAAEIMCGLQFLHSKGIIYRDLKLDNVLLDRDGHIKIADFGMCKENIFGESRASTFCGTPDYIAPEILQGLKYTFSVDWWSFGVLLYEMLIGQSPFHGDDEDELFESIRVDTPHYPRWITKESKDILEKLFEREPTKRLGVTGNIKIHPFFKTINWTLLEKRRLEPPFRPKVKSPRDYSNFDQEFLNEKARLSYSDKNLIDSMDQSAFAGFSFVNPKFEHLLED
Protocol: The PKC in vitro kinase assays were performed as described previously.
To determine whether the novel analogs retained this specificity, we tested the compounds against their ability to inhibit PKCα, -βI, -δ, and CAMKIIα in in vitro radiometric kinase activity assays.
Inhibition of PKCα (A), PKCβI (B), PKCδ (C), or CAMKIIα (D) by each of the 5 analogs was determined at 100 nM, 1 μM, and 10 μM concentrations. […] Data are the mean ± S.E.M. of three independent experiments. Statistical significance was determined using the unpaired t-test. ns, not statistically significant; *, p < 0.05; **, p < 0.01; ***, p < 0.001.

Sequence of AKT2 (P31751 whole entry): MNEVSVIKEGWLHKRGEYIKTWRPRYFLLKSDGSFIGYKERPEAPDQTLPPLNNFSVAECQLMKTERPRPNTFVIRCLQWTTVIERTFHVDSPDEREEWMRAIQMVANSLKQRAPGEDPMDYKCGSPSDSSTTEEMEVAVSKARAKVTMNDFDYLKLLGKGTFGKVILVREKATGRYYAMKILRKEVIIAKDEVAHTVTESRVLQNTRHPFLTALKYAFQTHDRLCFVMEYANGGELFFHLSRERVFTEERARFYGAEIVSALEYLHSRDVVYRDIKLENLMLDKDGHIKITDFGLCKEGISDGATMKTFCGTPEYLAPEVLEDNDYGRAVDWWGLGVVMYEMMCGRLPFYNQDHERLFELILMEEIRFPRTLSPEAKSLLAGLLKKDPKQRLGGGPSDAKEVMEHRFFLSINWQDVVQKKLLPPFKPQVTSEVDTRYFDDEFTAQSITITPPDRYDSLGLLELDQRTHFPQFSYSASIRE

For `O=C1NCCCc2c1oc1ccc(O)cc21` [CID755673, 7-Hydroxy-2,3,4,5-tetrahydro-[1]benzoxolo[2,3-c]azepin-1-one], the inhibition at 10 µM [1] was 4%, the inhibition at 10 µM [2] was 36% and the inhibition at 10 µM [3] was 49%. The “inhibition of protein kinase B (AKT/PKB)” value [4] was “did not inhibit”, the inhibition at 10 µM [5] was 4% and the inhibition at 10 µM [6] was -3%. For the same molecule, the inhibition at 10 µM [7] was 0%, the “inhibition of PKCα” value [8] was “did not inhibit” and the inhibition at 10 µM [9] was -8%. It also gave an inhibition at 10 µM [10] of 16%, an inhibition at 10 µM [11] of 11% and an inhibition at 10 µM [12] of 44%. The “Average % Inhibition AMPK” value [13] was 35%, the inhibition at 10 µM [14] was 3% and the “inhibition of CAMKIIα” value [15] was “did not inhibit”. For the same molecule, the inhibition at 10 µM [16] was 40%, the inhibition at 10 µM [17] was 3% and the inhibition at 10 µM [18] was 8%. For the same molecule, the inhibition at 10 µM [19] was 17%, the “inhibition of PLK1” value [20] was “did not inhibit” and the inhibition at 10 µM [21] was 29%. For the same molecule, the “inhibition of CAK” value [22] was “did not inhibit”, the inhibition at 10 µM [23] was 31% and the inhibition at 10 µM [24] was 2%. The inhibition at 10 µM [25] was 11% and the inhibition at 10 µM [26] was -2%.

For `O=C1NCCSc2c1sc1ccc(O)cc21` [kb-NB142-70], the “effect on cell proliferation” value [27] was “most potent among the compounds”.

For `O=C1NCCSc2c1sc1ccc(O)c(I)c21` [kb-NB165-31], the “inhibition of PKCδ (in words)” value [28] was “significant inhibitory activity” and the inhibition at 10 µM ([28]; 10 μM, read-out: inhibitory activity toward PKCδ) was about 50%.
